{"source": "patent US12214080B2", "about": "“Micronized lipids” (MCAL Therapeutics Inc., priority 2021, dated 2025)", "key": {"naïve dogs": {"tested_on": "naïve dogs", "assay": "Non-GLP topical ocular dose range-finding toxicity and tolerability study (SPOTS, IOP, STT)", "format": "in vivo", "protocol": "(§1) A non-GLP topical ocular administration dose range-finding pharmacology and toxicity study of MCAL-201 was conducted in naïve dogs. The primary study objective was to assess the tolerability of topical ocular administration of MCAL-201 in dogs with a secondary objective to obtain data supporting pharmacological activity in healthy dogs.\n(§2) The effects of vehicle and 0.1, 0.5, 1, 3 and 10 mg/mL MCAL-201 delivered as a 35 μL drop bilaterally QD (0.0035, 0.0175, 0.035, 0.105 and 0.35 mg/eye/day) were evaluated in Part I. The dosing regimen is summarized in 3.\n(§3) Scoring of the ocular surface and anterior segment of the eye was performed using the SPOTS system by a board-certified veterinary ophthalmologist. SPOTS was performed for each concentration evaluated. To measure TBUT, fluorescein was instilled in the eye and the eye was manually closed and then gently opened to simulate a blink. The time interval between the opening of the eye and the first sign of disruption of the uniform tear film, as indicated by breaks in the fluorescein was recorded in seconds. The procedure was repeated three times on both eyes, first right than left eye. After BID dosing with 10 mg/mL MCAL-201, SPOTS was also performed at 48 hours after the last dose."}, "[1]": {"assay": "Physical stability of the micronized suspension toward separation of particles", "format": "physicochemical", "conditions": "suspension in PBS with polysorbate 80 and xanthan gum, room temperature", "description": "Treatment of these particles with poly-sorbate 80 (0.3% w/w) as a wetting agent affords a suspension of the micronized particles in a mixture of xanthan gum (0.1-0.3% w/w, See FIG. 3) in Phosphate Buffered Saline (PBS, pH 6-8, 260-320 mOsm/L) suitable for administration as a stably suspended topical drop or suspension for injection."}, "[2]": {"assay": "Solubility and general physicochemical properties of MCAL-201", "protocol": "The general and physiochemical properties of MCAL-201 are: • 1,2-EPRG has a molecular weight of 611.05 g/mol • Empirical formula: C39H78O4 • Appearance: White powder • Particle size: 1-10 μm (post micronization) • Hygroscopicity: Low • Chirality: Racemic • Enantiomeric excess: 0 • Melting point: 57° C. • Solubility: Insoluble in water. Soluble in chloroform (40 mg/mL) and castor oil (25 mg/mL)\nHowever, preparation of a water soluble cyclodextrin inclusion complex of MCAL-201 was used in nonclinical efficacy studies. In addition, solutions of MCAL-201 in castor oil which can be emulsified to micron sized liquid particles in aqueous buffers can be used to deliver MCAL-201 directly to the tear film lipid layer."}, "healthy dogs": {"tested_on": "healthy dogs", "assay": "Tear film break-up time (TBUT) after topical ocular administration", "format": "in vivo, dog", "conditions": "5 healthy adult dogs, single administration (FIG. 6)", "protocol": "as §1, §2, §3"}, "[3]": {"assay": "Chemical and isomeric stability (1,2-EPRG to 1,3-EPRG acyl migration), NMR analysis", "format": "physicochemical", "text": "This led to development of the delivery of solid MCAL-201 as a suspension of crystalline or amorphous micronized solid particle suspended in a water-based formulation isotonic with tear. Although MCAL-201 crystalline drug substance floated on phosphate buffered saline (PBS) it could be suspended following micronization to 1-10 micron particles which could be stably suspended in PBS with the aid of polysorbate 80 as a wetting agent and xanthan gum to adjust density and viscosity of the drug product."}}, "note": "Entries after “also recorded” stand apart in the source; their conditions may differ.", "data": [{"compound": "CCCCCCCCCCCCCCCCCCCCOCC(CO)OC(=O)CCCCCCCCCCCCCCC", "note": "(racemic) [MCAL-201, 1-O-eicosanyl-2-palmitoyl-rac-glycerol]", "values": [{"measurement": "Ocular or systemic adverse events", "setting": "naïve dogs; any time or concentration evaluated (up to 10 mg/mL OU BID for 48 hours)", "value": "no ocular or systemic adverse events"}, {"measurement": "Tolerability", "setting": "naïve dogs; topical ocular 35 μL drop, up to 10 mg/mL OU BID for 48 hours", "value": "well tolerated"}, {"measurement": "Physical stability of the micronized suspension (floating, sinking or aggregation), duration demonstrated", "setting": "[1]", "value": "> 6", "unit": "months"}, {"measurement": "Hygroscopicity", "setting": "[2]", "value": "Low"}, {"measurement": "Solubility in water", "setting": "[2]; water", "value": "Insoluble; also recorded: extreme insolubility"}, {"measurement": "Tear film break-up time (TBUT)", "setting": "healthy dogs", "value": "extended TBUT"}, {"measurement": "1,3-EPRG isomeric content", "setting": "[3]; after jet mill micronization, NMR (FIG. 4)", "value": 1.15, "unit": "mol %"}, {"measurement": "Long-term chemical stability in the liquid solution phase (acyl migration of the palmitoyl group from 2 to 3 position)", "setting": "[3]; liquid solution phase", "value": "lacked long-term chemical stability"}, {"measurement": "Isomeric stability in the suspension formulation, duration demonstrated", "setting": "[3]; micronized MCAL-201 in suspension formulation, room temperature", "value": 6, "unit": "weeks"}, {"measurement": "1,3-EPRG isomeric content", "setting": "[3]; solid micronized suspension stored at room temperature for 6 weeks, NMR (FIG. 5)", "value": 0.0991, "unit": "mol %"}, {"measurement": "Isomeric stability in the solid phase compared with solution", "setting": "[3]; solid phase", "value": "far greater than in solution"}]}]}
